Data published in patent US12077503B2, “Substituted cyclic amides and their use as herbicides” (FMC CORPORATION, priority 2015, dated 2024).

Legend:
Test in all cases: Test G Pre-Emergence Protocol
Type in all cases: in vivo
[1] = system: barnyardgrass (Echinochloa crus-galli); conditions: Echinochloa crus-galli, pre-emergence, 312 h, evaluated after 13 days; for pest or weed control at 15.625 g/ha: 15.625 g ai/ha, read-out: Barnyard grass damage rating (100=total damage to plant; 0=no damage to plant); for pest or weed control at 62.5 g/ha: 62.5 g ai/ha, 100=total damage to plant, 0=no damage to plant, read-out: plant damage rating, Barnyardgrass; for pest or weed control at 250 g/ha: 250 g ai/ha, read-out: Barnyardgrass damage rating (100=total damage to plant; 0=no damage to plant)
How it was run: (§1)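 Spraying took place one day after sowing, at 15.625, 62.5 or 250 g/ha, using an acetone/water (50:50) spray solution containing 0.5% Tween 20. Plants were kept under glasshouse conditions (24/16 °C, 14 h light, 65% humidity, watered twice daily), and injury was rated 0–100 at day 13.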

[2] = system: giant foxtail (Setaria faberi); conditions: Setaria faberi, pre-emergence, 312 h, evaluated after 13 days; for pest or weed control at 15.625 g/ha: 15.625 g ai/ha; for pest or weed control at 15.625 g/ha / pest or weed control at 250 g/ha: read-out: Foxtail, Giant damage rating (100=total damage to plant; 0=no damage to plant); for pest or weed control at 62.5 g/ha: 62.5 g ai/ha, 100=total damage to plant, 0=no damage to plant, read-out: plant damage rating, Foxtail, Giant; for pest or weed control at 250 g/ha: 250 g ai/ha
How it was run: as §1

[3] = system: ivy-leaved morning glory (Ipomoea hederacea); conditions: Ipomoea, pre-emergence, 312 h, evaluated after 13 days; for pest or weed control at 15.625 g/ha: 15.625 g ai/ha, read-out: Morning-glory, Ivy-leaved damage rating (100=total damage to plant; 0=no damage to plant); for pest or weed control at 62.5 g/ha: 62.5 g ai/ha, 100=total damage to plant, 0=no damage to plant, read-out: plant damage rating, Morningglory, Ivy-leaved; for pest or weed control at 250 g/ha: 250 g ai/ha, read-out: Morningglory, Ivy-leaved damage rating (100=total damage to plant; 0=no damage to plant)
How it was run: as §1

[4] = system: velvetleaf (Abutilon theophrasti); conditions: Abutilon theophrasti, pre-emergence, 312 h, evaluated after 13 days; for pest or weed control at 15.625 g/ha: 15.625 g ai/ha; for pest or weed control at 15.625 g/ha / pest or weed control at 250 g/ha: read-out: Velvetleaf damage rating (100=total damage to plant; 0=no damage to plant); for pest or weed control at 62.5 g/ha: 62.5 g ai/ha, 100=total damage to plant, 0=no damage to plant, read-out: plant damage rating, Velvetleaf; for pest or weed control at 250 g/ha: 250 g ai/ha
How it was run: as §1

[5] = system: redroot pigweed (Amaranthus retroflexus); conditions: Amaranthus retroflexus, pre-emergence, 312 h, evaluated after 13 days; for pest or weed control at 15.625 g/ha: 15.625 g ai/ha; for pest or weed control at 15.625 g/ha / pest or weed control at 250 g/ha: read-out: Pigweed, Redroot damage rating (100=total damage to plant; 0=no damage to plant); for pest or weed control at 62.5 g/ha: 62.5 g ai/ha, 100=total damage to plant, 0=no damage to plant, read-out: plant damage rating, Pigweed, Redroot; for pest or weed control at 250 g/ha: 250 g ai/ha
How it was run: as §1

corn (Zea mays) = conditions: Zea mays, pre-emergence, 312 h, evaluated after 13 days; for plant injury at 15.625 g/ha: 15.625 g ai/ha; for plant injury at 15.625 g/ha / plant injury at 250 g/ha: read-out: Corn damage rating (100=total damage to plant; 0=no damage to plant); for plant injury at 62.5 g/ha: 62.5 g ai/ha, 100=total damage to plant, 0=no damage to plant, read-out: plant damage rating, Corn; for plant injury at 250 g/ha: 250 g ai/ha
How it was run: as §1

SMILES: CN1C[C@@H](c2ccc(C(F)(F)F)cc2)[C@H](C(=O)Nc2ncc(C#N)s2)C1=O (racemic) [Compound 1528]
- pest or weed control at 15.625 g/ha [1]: 0%
- pest or weed control at 62.5 g/ha [1]: 0%
- pest or weed control at 250 g/ha [1]: 0%
- pest or weed control at 15.625 g/ha [2]: 0%
- pest or weed control at 62.5 g/ha [2]: 0%
- pest or weed control at 250 g/ha [2]: 0%
- pest or weed control at 15.625 g/ha [3]: 0%
- pest or weed control at 62.5 g/ha [3]: 0%
- pest or weed control at 250 g/ha [3]: 0%
- pest or weed control at 15.625 g/ha [4]: 0%
- pest or weed control at 62.5 g/ha [4]: 0%
- pest or weed control at 250 g/ha [4]: 0%
- pest or weed control at 15.625 g/ha [5]: 0%
- pest or weed control at 62.5 g/ha [5]: 0%
- pest or weed control at 250 g/ha [5]: 0%
- plant injury at 15.625 g/ha (corn (Zea mays)): 0%
- plant injury at 62.5 g/ha (corn (Zea mays)): 0%
- plant injury at 250 g/ha (corn (Zea mays)): 0%

SMILES: Cc1cc(NC(=O)[C@@H]2C(=O)N(C)C[C@H]2c2ccc(C(F)(F)F)cc2)n[nH]1 (racemic) [Compound 1532]
- pest or weed control at 15.625 g/ha [1]: 0%
- pest or weed control at 62.5 g/ha [1]: 30%
- pest or weed control at 250 g/ha [1]: 0%
- pest or weed control at 15.625 g/ha [2]: 100%
- pest or weed control at 62.5 g/ha [2]: 100%
- pest or weed control at 250 g/ha [2]: 0%
- pest or weed control at 15.625 g/ha [3]: 0%
- pest or weed control at 62.5 g/ha [3]: 0%
- pest or weed control at 250 g/ha [3]: 0%
- pest or weed control at 15.625 g/ha [4]: 0%
- pest or weed control at 62.5 g/ha [4]: 0%
- pest or weed control at 250 g/ha [4]: 0%
- pest or weed control at 15.625 g/ha [5]: 0%
- pest or weed control at 62.5 g/ha [5]: 0%
- pest or weed control at 250 g/ha [5]: 0%
- plant injury at 15.625 g/ha (corn (Zea mays)): 0%
- plant injury at 62.5 g/ha (corn (Zea mays)): 0%
- plant injury at 250 g/ha (corn (Zea mays)): 0%

SMILES: CN1C[C@@H](c2ccc(C(F)(F)F)cc2)[C@H](C(=O)Nc2cc[nH]n2)C1=O (racemic) [Compound 1533]
- pest or weed control at 15.625 g/ha [1]: 0%
- pest or weed control at 62.5 g/ha [1]: 0%
- pest or weed control at 250 g/ha [1]: 0%
- pest or weed control at 62.5 g/ha [2]: 0%
- pest or weed control at 250 g/ha [2]: 0%
- pest or weed control at 15.625 g/ha [3]: 0%
- pest or weed control at 62.5 g/ha [3]: 0%
- pest or weed control at 250 g/ha [3]: 0%
- pest or weed control at 15.625 g/ha [4]: 0%
- pest or weed control at 62.5 g/ha [4]: 0%
- pest or weed control at 250 g/ha [4]: 0%
- pest or weed control at 15.625 g/ha [5]: 0%
- pest or weed control at 62.5 g/ha [5]: 0%
- pest or weed control at 250 g/ha [5]: 0%
- plant injury at 15.625 g/ha (corn (Zea mays)): 0%
- plant injury at 62.5 g/ha (corn (Zea mays)): 0%
- plant injury at 250 g/ha (corn (Zea mays)): 0%

SMILES: CN1C[C@@H](c2ccc(C(F)(F)F)cc2)[C@H](C(=O)Nc2nc[nH]n2)C1=O (racemic) [Compound 1534]
- pest or weed control at 15.625 g/ha [1]: 0%
- pest or weed control at 62.5 g/ha [1]: 0%
- pest or weed control at 250 g/ha [1]: 0%
- pest or weed control at 15.625 g/ha [2]: 0%
- pest or weed control at 62.5 g/ha [2]: 0%
- pest or weed control at 250 g/ha [2]: 0%
- pest or weed control at 15.625 g/ha [3]: 0%
- pest or weed control at 62.5 g/ha [3]: 0%
- pest or weed control at 250 g/ha [3]: 0%
- pest or weed control at 15.625 g/ha [4]: 0%
- pest or weed control at 62.5 g/ha [4]: 0%
- pest or weed control at 250 g/ha [4]: 0%
- pest or weed control at 15.625 g/ha [5]: 0%
- pest or weed control at 62.5 g/ha [5]: 0%
- pest or weed control at 250 g/ha [5]: 0%
- plant injury at 15.625 g/ha (corn (Zea mays)): 0%
- plant injury at 62.5 g/ha (corn (Zea mays)): 0%
- plant injury at 250 g/ha (corn (Zea mays)): 0%

SMILES: CN1C[C@@H](c2ccc(C(F)(F)F)cc2)[C@H](C(=O)Nc2cnccc2Cl)C1=O (racemic) [Compound 1541]
- pest or weed control at 15.625 g/ha [1]: 0%
- pest or weed control at 62.5 g/ha [1]: 0%
- pest or weed control at 250 g/ha [1]: 30%
- pest or weed control at 15.625 g/ha [2]: 0%
- pest or weed control at 62.5 g/ha [2]: 0%
- pest or weed control at 250 g/ha [2]: 70%
- pest or weed control at 15.625 g/ha [3]: 0%
- pest or weed control at 62.5 g/ha [3]: 0%
- pest or weed control at 250 g/ha [3]: 0%
- pest or weed control at 15.625 g/ha [4]: 0%
- pest or weed control at 62.5 g/ha [4]: 0%
- pest or weed control at 250 g/ha [4]: 0%
- pest or weed control at 15.625 g/ha [5]: 0%
- pest or weed control at 62.5 g/ha [5]: 0%
- pest or weed control at 250 g/ha [5]: 40%
- plant injury at 15.625 g/ha (corn (Zea mays)): 0%
- plant injury at 62.5 g/ha (corn (Zea mays)): 0%
- plant injury at 250 g/ha (corn (Zea mays)): 10%

SMILES: CN1C[C@@H](c2ccc(C(F)(F)F)cc2)[C@H](C(=O)Nc2ccc(C(F)(F)F)nc2Cl)C1=O (racemic) [Compound 1542]
- pest or weed control at 15.625 g/ha [1]: 0%
- pest or weed control at 62.5 g/ha [1]: 10%
- pest or weed control at 250 g/ha [1]: 10%
- pest or weed control at 15.625 g/ha [2]: 0%
- pest or weed control at 62.5 g/ha [2]: 10%
- pest or weed control at 250 g/ha [2]: 10%
- pest or weed control at 62.5 g/ha [3]: 0%
- pest or weed control at 250 g/ha [3]: 0%
- pest or weed control at 15.625 g/ha [4]: 0%
- pest or weed control at 62.5 g/ha [4]: 0%
- pest or weed control at 250 g/ha [4]: 0%
- pest or weed control at 15.625 g/ha [5]: 0%
- pest or weed control at 62.5 g/ha [5]: 0%
- pest or weed control at 250 g/ha [5]: 0%
- plant injury at 15.625 g/ha (corn (Zea mays)): 0%
- plant injury at 62.5 g/ha (corn (Zea mays)): 0%
- plant injury at 250 g/ha (corn (Zea mays)): 0%
